Measured values published in patent publication EP0996429B1, “SOLID STATE SOLUTIONS AND DISPERSIONS OF POORLY WATER SOLUBLE DRUGS” (MERCK PATENT GmbH, priority 1997, dated 1999).

Experiments:
[1] = Intrinsic dissolution of phenytoin and HydroSolve-phenytoin in DI water (paddle method, absorbance 220 nm); format: physicochemical; details: 900 ml D1 water, Paddle Method 50 rpm
Experimental: b. Procedures: • 1. Melt Gelucire and Pluronic together. • 2. Dissolve the phenytoin into above solution. • 3. Congeal this suspension and pass through #20 mesh. • 4. Measure about 32 and 110 mg of phenytoin and HydroSolve - phenytoin, respectively. • 5. Measure the dissolution profiles using 900 ml of D1 water and Paddle Method at 50 rpm. • 6. Using D1 water as blank, measure the absorbance at 220 nm of each sample which is filtered through 0.45 micron filters. • 7. Calculate the percent released by standard curve: Absorbance = 0.4072 x Concentration (mg/100ml) + 0.0227 [formula] c.

[2] = Intrinsic dissolution of ibuprofen and HydroSolve-Ibuprofen in pH 7.2 buffer (paddle, absorbance 221 nm); format: physicochemical; details: 700 ml pH 7.2 buffer, paddle 50 rpm
Experimental: b. Procedures: • 1.Melt Gelucire and Pluronic, and dissolve ibuprofen into the mixture. • 2.Add the above solution into Sorbitol Instant while stirring. • 3.Cool down and pass through #20 mesh screen. c. Dissolution Test Using the Dissolution Test as follows: • 1.Measure 3.3 mg and 17.2 mg of ibuprofen (20 micron) and HydroSolve - Ibuprofen, respectively. • 2.Measure the dissolution profiles using 700 ml of pH 7.2 buffer and paddle at 50 rpm. • 3.Measure the absorbance at 221 nm.

% Dissolved (%) ([1]; Time 0.5 h)	% Dissolved (%) ([1]; Time 1 h)	% Dissolved (%) ([1]; Time 2 h)	% Dissolved (%) ([1]; Time 3 h)	Dissolution profile (Results) ([2]; Time 10 min)	Dissolution profile (Results) ([2]; Time 20 min)	Dissolution profile (Results) ([2]; Time 30 min)	SMILES
3.03	5.92	14.42	20.58				O=C1NC(=O)C(c2ccccc2)(c2ccccc2)N1 [Phenytoin]
				75.93	81.14	81.14	CC(C)Cc1ccc(C(C)C(=O)O)cc1 (stereo not shown) [Ibuprofen]
